Measured values from US7560241B2, “Methods and compositions for modulating mitochondrial aldehyde dehydrogenase-2” (The Board of Trustees of the Leland Stanford Junior …, priority 2003, dated 2009).
“And” between values parts separate entries of the source, which are not always exact repeats. Equal values may be shown once. “Also recorded” adds a separate entry of the source. Read-outs that look alike come from different tables or passages of the source.

Assays:
rat hearts = assay: ischemia/reperfusion damage in ex vivo Langendorff rat hearts, infarct size by TTC staining; conditions: for ischemic damage by TTC staining of heart sections: ischemia/reperfusion
AldDH2 = assay: aldehyde dehydrogenase enzymatic activity in homogenates of ex vivo Langendorff rat hearts (NADH at 340 nm, acetaldehyde substrate); type: biochemical; conditions: for inhibition of AldDH2: during ischemia reperfusion; for rate of NADH accumulation (absorbance at 340 nm), FIG. 4: ethanol before ischemia vs I/R alone or normoxia, cyanamide in ethanol treated ischemic or normoxic samples
Procedure: Ex vivo Langendorff preparation of rat hearts were used as a model to assess the damage incurred by no-flow ischemia and reperfusion injury. This is an experimental model that mimics the clinical situation of myocardial infarction in patients. Rat hearts were excised and cannulated on a Langendorff apparatus via the aorta. Retrograde perfusion was carried out using the standard oxygenated Kreb-Hensleit buffer maintained at 37° C. All hearts were stabilized by an initial 5- to 10-minute perfusion period followed by delivery of different cardioprotective agents or AldDH2 inhibitors for 10-30 minutes, depending on the reagent. […] Ischemia was then introduced by 25 minutes of no-flow followed by 60 minutes of reperfusion. The degree of ischemia/reperfusion damage was measured by two independent commonly accepted parameters. […] In another assay, creatine phosphate kinase activity was measured from reperfusate of each heart collected during reperfusion. […] Homogenates from each heart was also obtained from a separate section of the identical sample and analyzed for aldehyde dehydrogenase enzymatic activity. Enzymatic activity was determined by a standard spectrophotometric method described above using acetaldehyde as the substrate and NAD^+ as a cofactor. FIG. 2: An experimental protocol using an ex vivo Langendorff heart. Rat hearts were excised and cannulated on a Langendorff apparatus via aorta. Retrograde perfusion was carried out using the standard oxygenated Kreb-Hensleit buffer maintained at 37° C. […] Peptides used were a selective activator (εV1-7) or inhibitor (εV1-2) or epsilon protein kinase C (εPKC). Ischemia was then introduced by 25 minutes of no-flow followed by 60 minutes of reperfusion. […] FIG. 3: Formation of acetic acid from acetaldehyde by action of aldehyde dehydrogenase. Enzymatic activity of aldehyde dehydrogenase is determined by a standard photospectrometric method using acetaldehyde as a substrate. In this reaction, aldehyde dehydrogenase catalyzes the oxidation of acetaldehyde to acetic acid. Concomitantly, NAD^+ is reduced to NADH resulting in an increase in absorbance at 340 nm wavelength in a photospectrometer. The rate of NADH increase is proportional to the enzymatic activity of aldehyde dehydrogenase.

Structure (SMILES) | increase in infarct damage (rat hearts) | increase in ischemia/reperfusion damage as measured by infarct size (rat hearts) | increase in ischemia/reperfusion damage as measured by infarct size (rat hearts; agent alone, compared to no treatment control) | increase in infarct damage (rat hearts; in samples treated with ethanol) | increase in infarct damage (rat hearts; in samples treated with εPKC agonist peptide) | ischemic damage by TTC staining of heart sections (rat hearts; compared to control heart) | cardiac damage under normoxic condition (rat hearts; normoxic, compared to control heart) | effect on induction of AldDH2 activity by ethanol or εPKC agonist peptide (AldDH2; co-treatment, ischemia/reperfusion) | inhibition of AldDH2 (AldDH2; cyanamide treatment in the absence of ethanol or peptide) | inhibition of AldDH2 (AldDH2; cyanamide treatment in the presence of ethanol) | inhibition of AldDH2 (AldDH2; cyanamide treatment in the presence of peptide) | rate of NADH accumulation (absorbance at 340 nm), FIG. 4 (AldDH2) | AldDH2 activity in normoxic heart samples (AldDH2; normoxic) | increase in AldHD2 activity (AldDH2; as compared to ischemia/reperfusion control, ethanol 50 mM for 10 minutes, peptide 1 μM)
O=[N+]([O-])OCC(CO[N+](=O)[O-])O[N+](=O)[O-] [Nitroglycerin, nitroglycerin] | 36% and 31% | 29% | – | – | – | – | – | – | – | – | – | – | – | –
N#CN [cyanamide] | – | – | 49% | 62% | 56% | eliminates the protective effect of ethanol and leads to an even greater damage as compared to control | does not produce any significantly greater damage than the control heart; also recorded: did not lead to any greater cardiac damage | effect of induction is also greatly abolished | 63% | 64% | 74% | reduction of NADH accumulation | inhibition of AldDH2 activity | –
CCO [ethanol] | – | – | – | – | – | leads to cardioprotection | – | – | – | – | – | increase in the rate of absorbance | – | 25%
